Source: the supplement of paper PMC10307832

Legend:
Test in all cases: relative viability (nuclei count vs DMSO), 5 days (fraction); higher = more cells survive
Dabrafenib = compound: CC(C)(C)c1nc(-c2cccc(NS(=O)(=O)c3c(F)cccc3F)c2F)c(-c2ccnc(N)n2)s1 [Dabrafenib]
Method in brief: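 Viability is treated-well nuclei as a fraction of vehicle-well nuclei, reported as the median across plates. Before counting, lung cancer cell lines were kept overnight at 37 °C in 1536-well plates, pinned with five √10-spaced library-drug doses on vehicle-anchored plates, and left 5 days without medium change, then fixed, permeabilised and Hoechst-stained in one step, imaged at 4× and counted by MetaXpress. A plate passed only if control CV was below 25% and at least one doubling occurred.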

VX-702 + Phenformin = compound: NC(=O)c1ccc(N(C(N)=O)c2c(F)cccc2F)nc1-c1ccc(F)cc1F [VX-702] + N=C(N)NC(=N)NCCc1ccccc1 [Phenformin] (partner 250 µM)
Method in brief: (§1)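 Relative viability equals treated-well nuclei counts divided by vehicle-well nuclei counts. Counts came from 4× images of lung cancer cell lines grown in 1536-well plates for 5 days after pin-tool dosing on the day after seeding. Dosing used one drug alone or a fixed anchor-drug dose plus five library-drug doses (not always all listed) in √10 steps, and values are medians of duplicate plates.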

VX-702 + Olaparib = compound: NC(=O)c1ccc(N(C(N)=O)c2c(F)cccc2F)nc1-c1ccc(F)cc1F [VX-702] + O=C(c1cc(Cc2n[nH]c(=O)c3ccccc23)ccc1F)N1CCN(C(=O)C2CC2)CC1 [Olaparib] (partner 8 µM)
Method in brief: as §1

VX-702 + OSI-027 = compound: NC(=O)c1ccc(N(C(N)=O)c2c(F)cccc2F)nc1-c1ccc(F)cc1F [VX-702] + COc1cccc2cc(-c3nc([C@H]4CC[C@H](C(=O)O)CC4)n4ncnc(N)c34)[nH]c12 [OSI-027] (partner 0.5 µM)
Method in brief: as §1

VX-702 + Foretinib = compound: NC(=O)c1ccc(N(C(N)=O)c2c(F)cccc2F)nc1-c1ccc(F)cc1F [VX-702] + COc1cc2c(Oc3ccc(NC(=O)C4(C(=O)Nc5ccc(F)cc5)CC4)cc3F)ccnc2cc1OCCCN1CCOCC1 [Foretinib] (partner 0.25 µM)
Method in brief: as §1

For SW 900, the relative viability (Dabrafenib; 0.009487 µM) was 0.84, the relative viability (Dabrafenib; 0.03 µM) was 0.589 and the relative viability (Dabrafenib; 0.09487 µM) was 0.665. For the same cell line, the relative viability (Dabrafenib; 0.3 µM) was 1.02, the relative viability (VX-702 + Phenformin; first compound 0.02 µM) was 0.634 and the relative viability (VX-702 + Phenformin; first compound 0.2 µM) was 0.585. The relative viability (VX-702 + Phenformin; first compound 0.6325 µM) was 0.869, the relative viability (VX-702 + Phenformin; first compound 2 µM) was 0.546 and the relative viability (VX-702 + Olaparib; first compound 0.02 µM) was 0.772. The relative viability (VX-702 + Olaparib; first compound 0.2 µM) was 0.878, the relative viability (VX-702 + Olaparib; first compound 0.6325 µM) was 0.887 and the relative viability (VX-702 + Olaparib; first compound 2 µM) was 0.893. For the same cell line, the relative viability (VX-702 + OSI-027; first compound 0.02 µM) was 0.565, the relative viability (VX-702 + OSI-027; first compound 0.2 µM) was 0.676 and the relative viability (VX-702 + OSI-027; first compound 0.6325 µM) was 0.592. For the same cell line, the relative viability (VX-702 + OSI-027; first compound 2 µM) was 0.765, the relative viability (VX-702 + Foretinib; first compound 0.02 µM) was 0.726 and the relative viability (VX-702 + Foretinib; first compound 0.2 µM) was 1.02. It also gave a relative viability (VX-702 + Foretinib; first compound 0.6325 µM) of 0.9 and a relative viability (VX-702 + Foretinib; first compound 2 µM) of 0.958.
